Measured values from US20120052079A1, “Compositions, Kits, and Methods for Predicting Anti-Cancer Response to Anthracyclines” (Dana-Farber Cancer Institute, Inc., priority 2010, published 2012).

Experiments:
Format in all cases: cell-based, human
BT549 cells [1] = assay: Cathepsin release and Bid, caspase 3, PARP cleavage by immunoblot; conditions: for LAPTM4B knockdown-induced Bid truncation and apoptosis: BT549 pretreated with cathepsin inhibitors
Procedure: Cytosolic extraction was performed using the detergent digitonin which permeabilizes cholesterol-rich membranes such as plasma membrane, leaving the cholesterol-poor membranes of lysosomes and mitochondria more or less intact. Cells were exposed to an extraction buffer (250 mM sucrose, 20 mM Hepes, 10 mM KCl, 1.5 mM MgCl2, 1 mM EDTA, 1 mM EGTA, and 1 mM Pefabloc, pH 7.5) containing 25 μg/ml digitonin for 20 min on ice, inverting the tubes every 2 min. The extraction buffer was collected and proteins were precipitated by addition of 5% trichloric acid on ice for 10 min and centrifuged at ˜20,800×g for 15 min to obtain the protein pellet. The pellet was dissolved in lysis buffer.
Tumor cell line lysates or cytosols were fractionated in 7, 12 or 14% SDS-PAGE, electrophoretically transferred to a nitrocellulose membrane and probed with primary antibodies (monoclonal Anti-β-Actin antibody (Sigma), anti-Bid (BD PharMingen), anti-caspase 3, anti-H is, anti-LC3 and anti-PARP antibodies (Cell Signaling Technology), and anti-cathepsin B, anti-cathepsin D, anti-p62, HRP-conjugated secondary antibodies and FITC-conjugated secondary antibodies (Abcam). The probed proteins were visualized using the ECL Western blotting detection system from Pierce according to the manufacturer's instructions. Band densities were quantified on a AlphaImager HP imaging system (Cell Biosciences).

MDA468 cells = assay: Autophagy markers LC3 and p62 by immunoblot, LAPTM4B overexpression; conditions: MDA468 with stable LAPTM4B over expression
From the text: Band densities were quantified on a AlphaImager HP imaging system (Cell Biosciences).

[2] = tested on: MDA-MB-231 (MDA231) and BT549 cells; assay: Drug-induced apoptosis, Western blot for active caspase 3 and cleaved PARP; conditions: doxorubicin 1 μM or cisplatin 25 μM, 48 h
Procedure: (§1) Viable cell number was quantified using CellTiter 96® Aqueous One Solution Cell Proliferation Assay (Promega). Results are reported as optical density at 490 nm wavelength. Cells (4,000 well^−1) were seeded into 96-well plates in triplicate. siRNA transfections were performed 24 h after cell seeding. Chemotherapeutic drugs (daunorubicin, doxorubicin, paclitaxel, and cisplatin) were added 24 h after cell seeding or siRNA transfection. Cells were exposed to a series of concentrations of individual drugs for additional 48 h. Results are presented as the percentage of viable cells in drug-treated wells vs. media-treated control wells and plotted as a drug-dose dependent cell survive curve. The dose of drug causing a fifty percent reduction of viable cells (IC50) determined drug sensitivity. Drug-induced apoptosis was evaluated 48 h after drug treatment (doxorubicin at 1 μM or cisplatin at 25 μM) following siRNA transfection by detection of active caspase 3 and cleaved poly(ADP-ribose) polymerase (PARP) by Western blot analysis using caspase 3- and PARP-specific antibodies (Cell Signaling Technology), respectively.

HMEC cells = assay: Cell growth assay (CellTiter 96), drug IC50 in HMEC transfected with LAPTM4B-HA or YWHAZ-HA; conditions: for effect of exogenous LAPTM4B or YWHAZ on sensitivity to drug: HMEC expressing exogenous LAPTM4B or YWHAZ
From the text: The full length LAPTM4B and YWHAZ cDNAs linked to an HA tag were cloned into the pWZL (Boehm et al. (2005) Mol. Cell. Biol. 25, 6464-6474) and pBabe vectors, respectively, and packaged using the Phoenix™ Retroviral System from Orbigen. pWZL-LAPTM4B HA and pBabe-YWHAZ-HA were introduced into HMEC cells by retroviral infection and stably selected with blasticidin and puromycin, respectively.
as §1

[3] = tested on: MDA-MB-231 (MDA231), HCC38 and CAMA-1; assay: Cell growth assay, drug sensitivity after LAPTM4B/YWHAZ siRNA knockdown; conditions: siRNA knockdown vs control siRNA
Procedure: Gene-specific and negative control oligonucleotides (Stealth™ Select RNAi, Invitrogen) were transfected using the Lipofectamine™ RNAi MAX protocol from Invitrogen. Three gene-specific oligonucleotide siRNAs were tested for each gene (LAPTM4b siRNA1: 5′-[…]-3′ and 3′-[…]-5′; LAPTM4b siRNA2: 5′-[…]-3′ and 3′-[…]-5′; LAPTM4b siRNA3: 5′-[…]-3′ and 3′-[…]-5′; LAPTM4b shRNA: Top strand, […], Bottom strand, […]; YWHAZ siRNA1: 5′-[…]-3′ and 3′-[…]-5′; YWHAZ siRNA2: 5′-[…]-3′ and 3′-[…]-5′; and YWHAZ siRNA3: 5′-[…]-3′ and 3′-[…]-5′). Transfections were performed in triplicate and the experiment was repeated four times to estimate the effect and standard deviation from the mean. Because specific antibodies were not available for the 12 genes tested, the effectiveness of siRNA knockdown by each oligonucleotide was determined by qRT-PCR assay of mRNA levels according to methods described herein.
as §1

MDA-MB-231 cells = assay: Cellular distribution of doxorubicin (autofluorescence); conditions: 0.5 μM doxorubicin; detectable within 12 h to 24 h, sustained at 48 h
BT549 cells [4] = assay: Cellular distribution of doxorubicin (autofluorescence, confocal)
Procedure: Twenty-four h after transfection with specific siRNA or control oligos, cells were challenged with 0.5 μM doxorubicin in complete medium for 24 h. After 24 h, the drug was removed and cells were cultured in fresh drug-free medium and examined at 36 and 48 h time points. At each time point, cells were washed twice in PBS, and fixed for 5 min in 3.0% paraformaldehyde and permeabilized in 0.1% Triton X-100 for 5 min. Following washing with PBS, cells were mounted in Prolong Gold® anti-fade reagent with DAPI (Invitrogen). Subcellular localization of doxorubicin was viewed by the Rhodamine (Cy3) channel and nuclear staining was viewed by the DAPI channel on a Zeiss HAL100 fluorescence microscope.
Forty-eight hours after transfection with specific siRNA or scramble control oligonucleotide, cells were treated with 0.1 μM doxorubicin in complete medium for 24 hours. After 24 hours of drug exposure, the drug was removed and cells were cultured in fresh drug-free medium and examined 24 hours later. Cells were washed, fixed and stained with DAPI as described in Li et al. (2010) Nat. Med., 16, 214-218. Subcellular localization of doxorubicin autofluorescence (excited wave: 480 nm; emitted wave: 560-620 nm) and lysosomes indicated by LysoTracker DND-26 (excited wave: 504 nm; emitted wave: 509-540 nm) was examined on a Leica SP5X Laser Scanning Confocal Microscope with a white light laser.

[5] = BT549 pretreated with pan-caspase inhibitor

Compound: pepstatin A
- LAPTM4B knockdown-induced Bid truncation and apoptosis (BT549 cells [1]): protected

Compound: CCN(CC)CCCC(C)Nc1ccnc2cc(Cl)ccc12 (stereo not drawn) [chloroquine]
- starvation-induced autophagy (higher LC3II, lower p62) by LAPTM4B over expression (MDA468 cells): blocked

Compound: N.N.[Cl][Pt][Cl] [cisplatin]
- drug-induced apoptosis after knockdown of LAPTM4B or YWHAZ [2]: less apparent
- effect of exogenous LAPTM4B or YWHAZ on sensitivity to drug (HMEC cells): no significant effect
- sensitivity to drug after specific knockdown of LAPTM4B and YWHAZ [3]: weaker or no effect

Compound: COc1cccc2c1C(=O)c1c(O)c3c(c(O)c1C2=O)C[C@@](O)(C(C)=O)C[C@@H]3O[C@H]1C[C@H](N)[C@H](O)[C@H](C)O1 [daunorubicin]
- sensitivity to drug after specific knockdown of LAPTM4B and YWHAZ [3]: increased sensitivity

Compound: z-Val-Ala-Asp-fluoromethylketone [z-VAD-FMK]
- Bid truncation after LAPTM4B knockdown (BT549 cells [1]; [5]): did not prevent Bid truncation
- caspase 3 activation after LAPTM4B knockdown (BT549 cells [1]; [5]): sufficient to abrogate caspase 3 activation

Compound: CCOC(=O)[C@H]1O[C@@H]1C(=O)N[C@@H](CC(C)C)C(=O)NCCC(C)C (relative stereo) [EST, trans-epoxysuccinyl-L-leucylamindo-3-methylbutane ethyl ester]
- LAPTM4B knockdown-induced Bid truncation and apoptosis (BT549 cells [1]): protected

Compound: COc1cccc2c1C(=O)c1c(O)c3c(c(O)c1C2=O)C[C@@](O)(C(=O)CO)C[C@@H]3O[C@H]1C[C@H](N)[C@H](O)[C@H](C)O1 [doxorubicin]
- drug-induced apoptosis after knockdown of LAPTM4B or YWHAZ [2]: considerably increased
- nuclear localization of doxorubicin after LAPTM4B siRNA knockdown (MDA-MB-231 cells): substantial increase in nuclear localization
- doxorubicin distribution after down-regulation of LAPTM4B (BT549 cells [4]; BT549, LAPTM4B-specific siRNA, 48 hours exposure): release of doxorubicin from lysosomes
- intracellular distribution of doxorubicin autofluorescence (BT549 cells [4]; BT549 overexpressing LAPTM4B, Lysotracker green DND-26): co-localizes with the lysosome marker
- increase in IC50 of doxorubicin (HMEC cells; HMEC expressing exogenous LAPTM4B vs control vector, P<0.002): 270%
- increase in IC50 of doxorubicin (HMEC cells; HMEC expressing exogenous YWHAZ vs control vector, P=0.0001): 394%
- sensitivity to drug after specific knockdown of LAPTM4B and YWHAZ [3]: increased sensitivity

Compound: CC(=O)O[C@H]1C(=O)[C@@]2(C)[C@H]([C@H](OC(=O)c3ccccc3)[C@]3(O)C[C@H](OC(=O)[C@H](O)[C@@H](NC(=O)c4ccccc4)c4ccccc4)C(C)=C1C3(C)C)[C@]1(OC(C)=O)CO[C@@H]1C[C@@H]2O [paclitaxel]
- effect of exogenous LAPTM4B or YWHAZ on sensitivity to drug (HMEC cells): no significant effect
- sensitivity to drug after specific knockdown of LAPTM4B and YWHAZ [3]: weaker or no effect
